Ends that are not written are not given here.

The target of test [1] is P3028 (PGE73=His-tag-P3028) (Homo sapiens, UniProt P02768). Description: Blocking of P3028 binding by peptide inhibitors in solution (PEPSCAN-based ELISA). To be noted: peptide 0.5 mg/mL. As for the experimental part:
Three candidate peptide inhibitors of P3028 sequences/structures were identified and their blocking capacity in solution was tested. Potential peptide inhibitors of P3028 were synthesized on a chip. The linear and/or CLIPS peptides were synthesized based on the amino acid sequence of the target protein using standard Fmoc-chemistry and deprotected using trifluoric acid with scavengers. The constrained peptides were synthesized on chemical scaffolds in order to reconstruct conformational epitopes, using Chemically Linked Peptides on Scaffolds (CLIPS) technology (Timmerman et al. (2007)). For example, the single looped peptides were synthesized containing a dicysteine, which was cyclized by treating with alpha, alpha′-dibromoxylene and the size of the loop is varied by introducing cysteine residues at variable spacing. […] After one hour, the color development was measured. The color development was quantified with a charge coupled device (CCD)—camera and an image processing system.
The raw data (Raw Data: Optical density, Arbitrary OD units) are optical values obtained by a CCD-camera. The values mostly range from 0 to 3000, a log scale similar to 1 to 3 of a standard 96-well plate ELISA-reader. […] Sometimes a well contains an air-bubble resulting in a false-positive value, the cards are manually inspected and any values caused by an air-bubble are scored as 0. […]
For orientation: In an ELISA, binding on a coated surface is turned into a signal by an enzyme label.

Test [2] concerns PBMCs. The test can be described thus: Mitochondrial metabolism of PBMCs, conversion of MTS. It is filed as cell-based, human. To be noted: PBMCs from cancer patients, 5-40 μg/ml. As for the experimental part:
PBMCs from eight healthy control samples and nine cancer patients with various diagnoses (including renal cell cancer, malignant melanoma, rectal cancer, small cell lung cancer, non-small cell lung cancer (adenocarcinoma), squamous cell carcinoma, bladder cancer, osteosarcoma, pancreatic cancer, or bronchial cancer) were cultured in a modified version of the ex vivo model of Example 2 for seven days in the presence of various quantities of P28R (SEQ ID NO: 2), and control samples were untreated with P28R. […] Similar results were obtained when the PBMCs were cultured for only three days.
PBMCs from cancer patients with various diagnoses were cultured in a modified version of the ex vivo model of Example 2 with various concentrations of P28R or P27 (N=9 for P28R: N=8 for P27). The concentrations were either untreated control samples, 5 μg/mL (“SCF28-R5” and “SCF275”), 10 μg/ml (“SCF28-R10” and “SCF2710”), 20 μg/ml (“SCF28-R20” and “SCF2720”), or 40 μg/ml (“SCF28-R40” and “SCF2740”).

The test system of test [3] is PBMCs. The test can be described thus: IL-2 induced proliferation of PBMCs, BrdU incorporation. In kind it is cell-based, human. To be noted: PBMCs with low initial proliferation / low response to IL-2, 7 days. The protocol: PBMCs were cultured for 7 days with IL-2 and the proliferative rate was determined as incorporation of BrdU. Each bar represents mean value of triplets. Similar to the studies on the efficacy of antibodies (see FIG. 22) directed against P3028 to reverse cancer related immunosuppression determined as a poor proliferative response of PBMCs from cancer patients to IL-2, the efficacy of the low molecular weight inhibitor P28R on reversal of suppressed IL-2 induced proliferation was investigated. For each quantity of added P28R, IL-2 stimulated cells 240 are shown in the left, and unstimulated 242 are shown on the right. […]
The effect of P28R (SEQ ID NO: 2) on IL-2 induced proliferation was measured in a BrdU incorporation assay. […]
The response of high responders and low responders to various doses of P28R was compared. […] IL-2-induced proliferation was measured as BrdU incorporation, as in the above example, and the results are shown for high responders in FIG. 36A, and low responders in FIG. 36B.
PBMCs from low responder cancer patients of Example 30 were cultured as in Example 30, except that some samples were cultured with various concentrations P28R (aka “SCF28-R”), and others were cultured with various concentrations of P27 (aka “SCF27”). […] BrdU incorporation was measured as in Example 30. […]

For test [4], the system named is PBMCs from healthy control person. Description: PBMC activation (CD69/CD71, flow cytometry) in RPMI plus 10% human AB serum. It is filed as cell-based. To be noted: 40 μg/mL, 24 hours, healthy PBMCs. As for the experimental part: The activity of peptide P28R (SEQ ID NO: 2) and modifications of P28R was studied in a human ex vivo model using PBMCs in short term cultures, 24 or 48 hours. Effects of P28R and modifications of P28R on PBMCs from a healthy control person were studied. Activation was measured as percentage of cells with enhanced marker CD69 using flow cytometry. PBMCs were incubated with the peptides (40 μg/mL) for 24 hours in RPMI plus 10% human AB serum.
As observed in Example 37, P28R (SEQ ID NO: 2) can stimulate PBMCs from healthy controls in short term cultures when RPMI plus 10% normal human AB serum is used as culture medium. Truncations of P28R were also assessed for their ability to activate PBMCs. PBMCs were incubated with the peptides (40 μg/mL) for 24 hours in RPMI plus 10% human AB serum. PBMC activation was measured as percent cells with enhanced expression of either CD69 (FIG. 42A) or CD71 (FIG. 42B) using flow cytometry. Two experiments were performed for each peptide.
Effects of modified peptides on activation of PBMCs from healthy control person were assessed. Activation was determined as percentage of cells with enhanced marker CD69 or CD71 using flow cytometry. PBMCs were incubated with the peptides (40 μg/mL) for 48 hours in RPMI plus 10% human AB serum.
For orientation: A flow cytometer gives signals particle by particle.

Test [5] has as its system PBMCs. The test can be described thus: PBMC activation (CD69) in culture medium with cancer sera. To be noted: sera from dogs with cancer or human patients with cancer. It is filed as cell-based.
A further test deals with P3028 (SEQ ID NO: 185) (Homo sapiens, UniProt P02768). Description: Positional scan: P3028 binding to solid phase P28R variants (ELISA). As for the experimental part: Positional scan data was used to study the influence of substitution of different types of amino acids in each position of P28R (SEQ ID NO: 2) on the binding of P3028 (SEQ ID NO: 185). Each amino acid in the peptide sequence of P28R (SEQ ID NO: 2) was exchanged with all of the naturally occurring amino acids, and immobilized on a solid phase chip. The binding of P3028 to these “mutated” P28 R peptides synthesized on a chip was determined using the ELISA technique. In view of the results, Table 13 includes a column identifying optional substitutions at each position that can maintain binding to P3028.

Test [6] deals with PBMCs. Description: Direct binding to PBMCs (immunocytochemistry, rosetting of coated beads). More on the design: species or system human.

Take KKLDTFFKKLSLFTER [P27]: the “blocking of the binding of P3028 in solution” value in test [1] is listed as “does not”. Besides, in the test on PBMCs [2], the “effect on MTS conversion” value is given as “no effect”. In addition, the “effect on IL-2 induced proliferation (BrdU)” value with PBMCs [3] was “enhanced the proliferative rate”.
On to FFVKLS [P28 core], for which the “PBMC activation, enhanced CD69 or CD71” value in test [4] is “did not activate”. Further, the “PBMC activation, enhanced CD69” value in the test with PBMCs [5] is “activated PBMCs”. The “binding to P3028 based on positional scans” value with P3028 (SEQ ID NO: 185) was “as efficiently as the full length peptide P28R”.
Regarding “biotinylated P28R: P28R labelled with biotin (KKLDTFFVKLSLFTER; also: biotin label, position not given here)”, in the test with PBMCs [6], the “direct binding to PBMCs” value was “bind directly to PBMCs”.

The record behind these values is patent US10881709B2, “Immune system modulators and compositions” (Canimguide Therapeutics AB, priority 2015, dated 2021).
